For experiment [1], the target named is T1, Mitochondrial complex II (succinate dehydrogenase/coenzyme Q reductase) (Bos taurus, UniProt P31039+P35720+Q3T189+Q95123).
T1 construct: enzymatic activity of each complex derived from bovine heart mitochondria; purchased Cayman Chemical; host or cells: bovine heart mitochondria (tissue-derived, supplied in kit)
In words: MitoCheck Complex Activity Assay, complex II. In kind it is biochemical, bovine. To be noted: for IC50: bovine heart mitochondria. As for the experimental part: (§1) The inhibitory activity of compound 1 on the mitochondrial electron transport chain (complexes I–V) was analyzed using MitoCheck Complex Activity Assay kits (Cayman Chemical) following the manufacturer’s instructions. The kits measured the enzymatic activity of each complex derived from bovine heart mitochondria in the following systems: Mitochondrial complex I (NADH oxidase/coenzyme Q reductase) activity was determined by measuring the decrease in NADH oxidation, which is reflected by a decrease in absorbance at 340 nm. Mitochondrial complex II (succinate dehydrogenase/coenzyme Q reductase) activity was assessed on the basis of the reduction rate of 2, 6-dichlorophenolindophenol (protonated by reduced coenzyme Q), which is reflected by a decrease in absorbance at 600 nm. Mitochondrial complex III (coenzyme Q cytochrome c oxidoreductase) activity was determined on the basis of the cytochrome c reduction rate, which is reflected by an increase in absorbance at 550 nm. Mitochondrial complex IV (cytochrome c oxidase) activity was determined by measuring the cytochrome c oxidation rate, which is reflected by a decrease in absorbance at 550 nm. Mitochondrial complex V (F1F0 ATP synthase) activity was determined by the NADH oxidation rate, which can be monitored at 340 nm.

The target of experiment [2] is Mitochondrial complex III (coenzyme Q cytochrome c oxidoreductase) (Bos taurus, UniProt P00125+P00157+P13272). In words: MitoCheck Complex Activity Assay, complex III. To be noted: for IC50: bovine heart mitochondria. Type of experiment: biochemical, bovine. As for the experimental part: as §1
Chain of Mitochondrial complex III (coenzyme Q cytochrome c oxidoreductase) (P00125 85-325): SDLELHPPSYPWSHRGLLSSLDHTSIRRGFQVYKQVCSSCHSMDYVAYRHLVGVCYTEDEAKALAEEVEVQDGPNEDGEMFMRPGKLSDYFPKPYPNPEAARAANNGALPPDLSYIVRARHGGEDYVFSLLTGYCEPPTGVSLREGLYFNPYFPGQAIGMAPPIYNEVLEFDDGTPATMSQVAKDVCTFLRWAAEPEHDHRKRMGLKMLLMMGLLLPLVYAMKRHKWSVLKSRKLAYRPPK
Chain of Mitochondrial complex III (coenzyme Q cytochrome c oxidoreductase) (P00157 whole entry): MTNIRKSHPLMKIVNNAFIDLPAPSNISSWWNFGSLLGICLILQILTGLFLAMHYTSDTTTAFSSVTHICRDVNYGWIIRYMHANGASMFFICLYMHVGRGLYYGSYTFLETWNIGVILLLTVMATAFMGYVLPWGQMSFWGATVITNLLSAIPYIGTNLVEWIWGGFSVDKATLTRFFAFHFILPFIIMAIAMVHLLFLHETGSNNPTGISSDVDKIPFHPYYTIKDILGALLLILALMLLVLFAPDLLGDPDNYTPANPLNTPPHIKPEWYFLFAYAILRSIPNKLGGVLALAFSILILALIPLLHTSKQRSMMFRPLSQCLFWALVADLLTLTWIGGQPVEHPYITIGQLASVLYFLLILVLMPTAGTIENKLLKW
Chain of Mitochondrial complex III (coenzyme Q cytochrome c oxidoreductase) (P13272 whole entry): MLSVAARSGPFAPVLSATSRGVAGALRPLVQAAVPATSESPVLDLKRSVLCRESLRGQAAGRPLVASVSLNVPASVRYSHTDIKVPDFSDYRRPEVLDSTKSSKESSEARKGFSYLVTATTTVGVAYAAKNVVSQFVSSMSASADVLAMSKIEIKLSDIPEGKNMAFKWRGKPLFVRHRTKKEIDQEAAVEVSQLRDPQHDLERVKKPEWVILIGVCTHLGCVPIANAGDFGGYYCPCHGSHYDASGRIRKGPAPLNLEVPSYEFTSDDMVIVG
Experiment [3] relates to human pancreatic carcinoma PANC-1 cells. Description: Cytotoxicity against PANC-1 cells under glucose-deficient or general culture conditions (WST-8). In kind it is cell-based. To be noted: for IC50: Homo sapiens, 12 h treatment, WST-8. As to the method:
PANC-1 cells were maintained in DMEM supplemented with heat-inactivated 10% FBS and kanamycin (50 µg/mL) and grown at 37 °C in a 5% CO2 atmosphere. […] The general culture medium—that is, basal medium containing 10% FBS and […] glucose (final concentration, 25 mM)—was used for comparison. The assay was performed as previously described. Briefly, PANC-1 cells (1 × 10^4 cells/100 µL in 96-well plastic plates) were preincubated in DMEM containing 10% FBS for 24 h. The medium was then changed with either the general glucose medium or glucose-deficient medium to induce adaption to nutrient starvation. After 12-h incubation, serially diluted samples were added to the media. Then, the cells were incubated for an additional 12 h at 37 °C in a 5% CO2 atmosphere. Cell proliferation was identified using WST-8. The IC50 values were determined by linear interpolation of the growth inhibition curve. We assessed the selectivity of the antiproliferative activity (S.I.) on the basis of the difference in the IC50 values for the general culture and glucose-deficient media.

In experiment [4] the target is T2, Mitochondrial complex IV (cytochrome c oxidase) (Bos taurus, UniProt P00396+P00415+P68530).
T2 construct: enzymatic activity of each complex derived from bovine heart mitochondria; purchased Cayman Chemical; host or cells: bovine heart mitochondria (tissue-derived, supplied in kit)
In words: MitoCheck Complex Activity Assay, complex IV. Type of experiment: biochemical. To be noted: bovine heart mitochondria. As to the method:
as §1, with “The” for “The inhibitory activity of compound 1 on the mitochondrial electron transport chain (complexes I–V) was analyzed using MitoCheck Complex Activity Assay kits (Cayman Chemical) following the manufacturer’s instructions. The”

The test system of experiment [5] is mitochondrial membrane potential of human pancreatic carcinoma PANC-1 cells. Description: Mitochondrial membrane potential (JC-1 MitoMP Detection Kit). Type of experiment: cell-based. To be noted: PANC-1 adapted to glucose-deficient medium; 1 h treatment; JC-1 Red/Green ratio. As to the method:
Figure 2 Effect of compounds 1 and 2 on the mitochondrial membrane potential of human pancreatic carcinoma PANC-1 cells. PANC-1 cells that adapted to glucose-deficient medium in the 96-well plates were treated with the indicated concentrations of the compounds for 1 h. Next, JC-1 working solution was added for measuring the mitochondrial membrane potential, and the plate was incubated for 30 min. The fluorescence intensity of the cells was measured using a Tecan Infinite M1000 microplate reader at Ex 485 nm and Em 535 nm (Green color fluorescence) and Ex 535 nm and Em 595 nm (Red color fluorescence). Differences were considered significant at * p < 0.05.
The mitochondrial membrane potential of PANC-1 cells was evaluated using the JC-1 MitoMP Detection Kit (Dojindo Laboratories) following the manufacturer’s instructions. […] The fluorescence intensity of the cells was assessed using an Infinite M1000 microplate reader (Tecan Group Ltd., Mannedorf, Switzerland) at Ex 485 nm and Em 535 nm (Green color fluorescence) and Ex 535 nm and Em 595 nm (Red color fluorescence). The ratio of the two fluorescence intensities (Red vs. Green) was then calculated.

Setting [6] is: PANC-1, glucose-deficient medium, 12 h adaptation.

T1 sequence (P31039 44-665): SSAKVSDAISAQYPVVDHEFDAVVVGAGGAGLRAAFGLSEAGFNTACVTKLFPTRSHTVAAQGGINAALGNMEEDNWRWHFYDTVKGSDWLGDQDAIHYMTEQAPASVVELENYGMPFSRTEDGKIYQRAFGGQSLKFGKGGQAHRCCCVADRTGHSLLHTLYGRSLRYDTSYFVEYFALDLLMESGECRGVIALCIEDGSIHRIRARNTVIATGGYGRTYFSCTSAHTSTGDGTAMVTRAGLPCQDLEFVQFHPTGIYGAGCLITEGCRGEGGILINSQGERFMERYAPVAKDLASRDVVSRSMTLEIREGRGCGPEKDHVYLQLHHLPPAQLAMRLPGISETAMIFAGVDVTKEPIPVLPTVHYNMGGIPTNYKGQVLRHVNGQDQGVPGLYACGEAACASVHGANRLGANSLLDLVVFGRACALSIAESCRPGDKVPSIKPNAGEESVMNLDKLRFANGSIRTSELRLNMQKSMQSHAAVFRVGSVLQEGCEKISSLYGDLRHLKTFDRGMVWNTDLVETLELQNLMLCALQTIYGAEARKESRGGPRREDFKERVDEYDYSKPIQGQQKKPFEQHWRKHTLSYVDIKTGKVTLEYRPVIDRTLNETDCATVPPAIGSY
T1 sequence (Q3T189 29-280): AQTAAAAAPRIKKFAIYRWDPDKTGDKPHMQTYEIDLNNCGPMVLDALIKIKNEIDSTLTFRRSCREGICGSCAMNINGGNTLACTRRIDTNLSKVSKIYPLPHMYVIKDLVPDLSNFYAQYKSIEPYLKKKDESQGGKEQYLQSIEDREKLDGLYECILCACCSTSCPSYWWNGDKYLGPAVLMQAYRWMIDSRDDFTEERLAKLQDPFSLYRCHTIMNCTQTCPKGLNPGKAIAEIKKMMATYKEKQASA
T1 sequence (P35720 30-169): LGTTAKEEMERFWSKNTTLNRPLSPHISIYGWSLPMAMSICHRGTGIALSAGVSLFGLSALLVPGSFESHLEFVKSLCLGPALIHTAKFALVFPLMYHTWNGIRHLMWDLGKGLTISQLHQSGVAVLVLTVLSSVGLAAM
T1 sequence (Q95123 56-158): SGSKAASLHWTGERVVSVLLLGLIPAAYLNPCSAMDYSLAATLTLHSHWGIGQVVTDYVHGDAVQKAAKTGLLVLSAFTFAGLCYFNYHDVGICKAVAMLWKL

For `COc1cc(O)c2c(c1)C(=O)c1cc(C)cc(O)c1C2=O` [Compound 1, physcion], the IC50 was 90 ± 0.11 µM in experiment [1]; above 100 µM in experiment [2]; 1017 ± 0.05 µM in experiment [3] (PANC-1, general glucose medium); 6 ± 0.1 µM in experiment [3] (setting [6]); 34 ± 0.3 µM in experiment [4]. The same compound registered an inhibition at 100 µM in experiment [2] of 9%. Further, the “S.I. (selectivity index)” value in experiment [3] (difference in IC50 values for general culture and glucose-deficient media) is listed as 169.5. In addition, in experiment [5], the “effect on mitochondrial membrane potential” value is “dose-dependently decrease”.
For `C/C=C/C=C/c1cc2c(C=O)c(O)c(CC=C(C)C)cc2o1` [Compound 2, 2-(2′,3-epoxy-1′,3′,5′-heptatrienyl)-6-hydroxy-5-(3-methyl-2-butenyl) benzaldehyde], the inhibition at 100 µM in experiment [1] (100 µM) came to 24%; in experiment [2] it was 6%. In addition, the IC50 in experiment [1] was above 100 µM; in experiment [2] it was above 100 µM; in experiment [3] (PANC-1, general glucose medium) it was 859 ± 1 µM; in experiment [3] (setting [6]), 1.7 ± 0.05 µM; in experiment [4] it was 20 ± 0.3 µM. For the same compound, in experiment [3] (PANC-1), the “selective growth-inhibitory activity under glucose-deficient vs general culture conditions” value was 505 fold. The “effect on mitochondrial membrane potential” value in experiment [5] was “dose-dependently decrease”.

(Values after PMC7694948, “Mitochondrial Targeting in an Anti-Austerity Approach Involving Bioactive Metabolites Isolated from the Marine-Derived Fungus Aspergillus sp” (Marine Drugs, 2020).)
